From patent US9802942B2, “Substituted 4-methyl-pyrrolo[1,2-A]pyrimidine-8-carboxamide compounds and uses thereof for modulating glucocerebrosidase activity” (Northwestern University, priority 2015, dated 2017)
Where two headings read alike, the source gives them in different places.

Legend:
Format in all cases: biochemical
[1] = target: T1, glucocerebrosidase (GCase), recombinant wt. enzyme velaglucerase alfa (Homo sapiens, UniProt P04062); test: Glucocerebrosidase activity assay with blue substrate (4MU-Glc)
T1 construct: purchased Shire Human Genetic Therapies, Inc. Vpriv
T1 sequence (P04062 40-536): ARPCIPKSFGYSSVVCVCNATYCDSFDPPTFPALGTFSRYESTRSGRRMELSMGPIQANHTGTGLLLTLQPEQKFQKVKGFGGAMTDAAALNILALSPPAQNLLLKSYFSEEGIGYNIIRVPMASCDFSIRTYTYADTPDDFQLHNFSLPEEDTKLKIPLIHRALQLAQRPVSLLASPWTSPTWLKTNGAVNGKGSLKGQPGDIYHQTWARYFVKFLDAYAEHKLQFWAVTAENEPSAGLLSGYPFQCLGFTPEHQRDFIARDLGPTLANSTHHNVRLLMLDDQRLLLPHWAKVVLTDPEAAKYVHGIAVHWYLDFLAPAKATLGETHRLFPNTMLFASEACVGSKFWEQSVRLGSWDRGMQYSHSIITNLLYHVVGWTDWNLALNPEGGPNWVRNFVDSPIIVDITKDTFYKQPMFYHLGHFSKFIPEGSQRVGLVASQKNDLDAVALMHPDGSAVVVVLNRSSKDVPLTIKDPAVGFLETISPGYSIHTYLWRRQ
Method: (§1) The compounds in DMSO solution 0.5 μL/well were transferred to a black 96-well plate (the final titration was 24 nM to 50 μM, 12 concentrations, 2 times dilution). 33.5 μL enzyme solution (7.5 nM final concentration) was transferred to the wells. After 5 min of incubation at room temperature, the enzyme reaction was initiated by the addition of 33 μL/well blue substrate or 66.5 μL/well red substrate. Final concentrations of the blue substrate (4MU-Glc) and red substrate (Res-Glc) were 1.5 mM and 30 μM, respectively. The red substrate reaction was measured in the Biotek Synergy H1 multi-mode plate reader with Ex=573 nm and Em=610 nm at 37° C. every 20 sec for 30 min. The blue substrate reaction was terminated by the addition of 33 μL/well stop solution (1 M NaOH and 1 M glycine mixture, pH 10) after 30 min of incubation at 37° C. The fluorescence was then measured in the plate reader at Ex=365 nm and Em=440 nm.
The recombinant wt. enzyme velaglucerase alfa (Vpriv®, Shire Human Genetic Therapies, Inc.) was obtained from residual solution after clinical infusions. The GCase activity assay buffer was composed of 50 mM citric acid, 176 mM K2HPO4, and 0.01% Tween-20 at pH 5.9. A solution of 1 M sodium hydroxide and 1 M glycine was used as the stop solution for the 4MU-β-glc substrate assay.
The compounds in DMSO solution 0.5 μL/well was transferred to a black 96-well plate (the final titration was 24 nM to 50 μM, 12 concentrations). 33.5 μL enzyme solution (7.5 nM final concentration) was transferred to the wells. After 5 min of incubation at room temperature, the enzyme reaction was initiated by the addition of 33 μL/well 4MU-Glc substrate or 66.5 μL/well red substrate. Final concentrations of the 4MU-Glc substrate and Res-Glc substrate were 1.5 mM and 30 μM, respectively. The red substrate reaction was measured in the Biotek Synergy H1 multi-mode plate reader with Ex=573 nm and Em=610 nm at 37° C. in every 20 seconds for 30 min. The 4MU-Glc substrate reaction was terminated by the addition of 33 μL/well stop solution (1 M NaOH and 1 M glycine mixture, pH 10) after 30 min of incubation at 37° C. The fluorescence was then measured in the plate reader with Ex=365 nm and Em=440 nm.

[2] = target: T2, recombinant wild type GCase (Homo sapiens, UniProt P04062); test: Covalent binding assay: activity of GCase activated by probe 4; conditions: for enzyme activity comparing to the wt. GCase: covalent activation
T2 construct: purchased Shire Human Genetic Therapies, Inc. Vpriv
T2 sequence (P04062 40-536): T1 sequence (P04062 40-536)
Method: To the recombinant wild type enzyme (22 μM, 95 μL, 1 equiv) in 0.1 M phosphate buffer (pH 7.2) was added 2,5-dioxopyrrolidin-1-yl 3-(2-(2-(4-(4-(2,4-dimethylpyrrolo[1,2-a]pyrimidine-8-carboxamido)phenyl)-1H-1,2,3-triazol-1-yl)ethoxy)ethoxy)propanoate (4) in DMSO (0.89 mM, 5 μL, 2 equiv) in one portion, and was vortexed for 5 sec immediately. At indicated time points, the reaction solution (2 μL) was sampled and diluted (1:3125 dilution) into the assay buffer (50 mM citric acid, 176 mM K2HPO4, and 0.01% Tween-20 at pH 5.9). After 2 h the reaction solution was dialyzed three times with 0.1 M phosphate buffer (pH 7.2). The enzyme was adjusted to the same concentration and sampled for activity. The dilution solutions were assayed with three substrates, resorufin substrate, 4-MU substrate, and natural substrate using the method in Example 5 and Example 6 without adding compounds.
The probe 4 was subjected to the covalent binding assay against GCase. The reaction conditions, including the buffer pH value, the concentration of the protein and probe, and the reaction temperature were carefully adjusted to achieve the maximum activation. With the optimized reaction condition, the enzyme activity was activated in a time-dependent manner (FIG. 5). The enzyme could be activated by probe 4 with around 22 and 28 folds activity comparing to the wt. GCase in the 4MU-Glc substrate (FIG. 5A) and red substrate (FIG. 5B) enzyme activity assay respectively.

[3] = target: T1, glucocerebrosidase (GCase), recombinant wt. enzyme velaglucerase alfa; test: Glucocerebrosidase activity assay with red substrate (Res-β-glc); conditions: red substrate enzyme activity assay
Method: as §1, with “nm. […]” for “nm.”
The compounds in DMSO solution 0.5 μL/well was transferred to a black 96-well plate (the final titration was 24 nM to 50 μM, 12 concentrations). […] The red substrate reaction was measured in the Biotek Synergy H1 multi-mode plate reader with Ex=573 nm and Em=610 nm at 37° C. in every 20 seconds for 30 min. […] The fluorescence was then measured in the plate reader with Ex=365 nm and Em=440 nm.

[4] = Table 2, values marked activator, read-out: Activity AC50 or IC50
[5] = Table 1, titration 24 nM to 50 μM, substrate not given, read-out: Ac50

AC50 [1, 5]	Compound	other results
0.51 µM	Cc1cc(C)n2ccc(C(=O)Nc3ccc(N4CCCC4)cc3)c2n1 [compound 25]	–
107 µM	Cc1cc(C)n2ccc(C(=O)Nc3ccc(-n4ccnc4)cc3)c2n1 [compound 36]	–
0.8 µM	Cc1cc(C)n2ccc(C(=O)Nc3ccc(C(F)(F)F)cc3)c2n1 [compound 5]	–
39.8 µM	Cc1cc(C)n2ccc(C(=O)Nc3nccc4ccccc34)c2n1 [compound 21]	–
14.1 µM	Cc1cc(C)n2ccc(C(=O)Nc3ccc(CN(C)C)cc3)c2n1 [compound 20]	–
3.55 µM	Cc1cc(C)n2ccc(C(=O)Nc3ccc(N(C)C)cc3)c2n1 [compound 17]	–
39.8 µM	Cc1cc(C)n2ccc(C(=O)Nc3ccc(-c4cn(CCN(C)C)nn4)cc3)c2n1 [compound 63]	–
0.4 µM	Cc1cc(C)n2ccc(C(=O)Nc3nc4ccccc4s3)c2n1 [compound 31]	–
2.82 µM	Cc1cc(C)n2ccc(C(=O)Nc3ccc(CCO)cc3)c2n1 [compound 30]	–
39.9 µM	Cc1cc(C)n2ccc(C(=O)Nc3nc4cc(Cl)ccc4s3)c2n1 [compound 41]	–
15.8 µM	Cc1cc(C)n2ccc(C(=O)Nc3ccc(OCCC(=O)O)cc3)c2n1 [compound 56]	–
22.4 µM	Cc1cc(C)n2ccc(C(=O)Nc3ccccn3)c2n1 [compound 23]	–
15.8 µM	Cc1cc(C)n2ccc(C(=O)NC3CCCCC3)c2n1 [compound 27]	–
7.07 µM	Cc1cc(C)n2ccc(C(=O)Nc3ccc(-c4cn(CCCN)nn4)cc3)c2n1 [compound 64]	–
35.5 µM	Cc1cc(C)n2ccc(C(=O)Nc3ncc4ccccc4n3)c2n1 [compound 45]	–
22.4 µM	CCc1nnc(NC(=O)c2ccn3c(C)cc(C)nc23)s1 [compound 44]	–
39.8 µM	Cc1cc(C)n2ccc(C(=O)Nc3nc4c(s3)CN(C)CC4)c2n1 [compound 39]	–
39.8 µM	CCCn1cnc(NC(=O)c2ccn3c(C)cc(C)nc23)n1 [compound 49]	–

The remaining lines, values behind:

Compound	AC50 [1, 5]	other results
COC(=O)CCCCCc1cccc(NC(=O)c2ccn3c(C)cc(C)nc23)c1 [compound 81]	–	activator (word in Activity cell) ([1]; Table 2): activator; AC50 [1, 4]: 1.78 µM
Cc1cc(C)n2ccc(C(=O)Nc3ccc(C#CCCCCCCC#Cc4ccc(N)cc4)cc3)c2n1 [compound 75]	–	activator (word in Activity cell) ([1]; Table 2): activator; AC50 [1, 4]: 1.26 µM
Cc1cc(C)n2ccc(C(=O)Nc3ccc(-c4cn(CCOCCOCCC(=O)ON5C(=O)CCC5=O)nn4)cc3)c2n1 [No. 2, 2,5-Dioxopyrrolidin-1-yl 3-(2-(2-(4-(4-(2,4-dimethylpyrrolo[1,2-a]pyrimidine-8-carboxamido)phenyl)-1H-1,2,3-triazol-1-yl)ethoxy)ethoxy)propanoate]	–	maximum activity / activation activity ([1]; 4MU-Glc substrate enzyme activity assay): 20 folds; enzyme activity comparing to the wt. GCase ([2]; 4MU-Glc substrate): around 22 folds; enzyme activity comparing to the wt. GCase ([2]; red substrate): ~28 folds; enzyme activity followed by dialysis ([2]; three substrate assays, in words): not decreased significantly; activation activity, red substrate [3]: 10 folds
Cc1cc(C)n2ccc(C(=O)NC3CCN(c4ccccc4)CC3)c2n1 [compound 35]	22.4 µM	–
Cc1cc(C)n2ccc(C(=O)Nc3ccc(-c4cn(CCOCCOCCC(=O)NCCOCCOCCOCCNC(=O)CCOCCOCCn5cc(-c6ccc(NC(=O)c7ccn8c(C)cc(C)nc78)cc6)nn5)nn4)cc3)c2n1 [compound 71]	–	activator (word in Activity cell) ([1]; Table 2): activator; AC50 [1, 4]: 1.26 µM
Cc1cc(C)n2ccc(C(=O)Nc3ccc(C#CCCCCCCC#Cc4ccc(NC(=O)c5ccn6c(C)cc(C)nc56)cc4)cc3)c2n1 [compound 76]	–	activator (word in Activity cell) ([1]; Table 2): activator; AC50 [1, 4]: 28.2 µM
Cc1cc(C)n2ccc(C(=O)Nc3ccc(CN4CCCCC4)cc3)c2n1 [compound 9]	70.8 µM	–
Cc1cc(C)n2ccc(C(=O)Nc3ccc(Oc4ccccc4)cc3)c2n1 [compound 54]	0.56 µM	–
Cc1cc(C)n2ccc(C(=O)Nc3ccc(-c4cn(CCOCCN)nn4)cc3)c2n1 [compound 65]	7.08 µM	–
Cc1cc(C)n2ccc(C(=O)Nc3ccc(-c4ccccc4)cc3)c2n1 [compound 24]	1.41 µM	–
Cc1cc(C)n2ccc(C(=O)NC3CCC(N(C)C)CC3)c2n1 (stereo not shown) [compound 37]	40 µM	–
Cc1cc(C)n2ccc(C(=O)Nc3ccc(-c4cn(CCCCCCC(=O)ON5C(=O)CCC5=O)nn4)cc3)c2n1 [compound 61]	0.4 µM	–
COC(=O)CCCCCCCCC#Cc1ccc(NC(=O)c2ccn3c(C)cc(C)nc23)cc1 [compound 74]	–	activator (word in Activity cell) ([1]; Table 2): activator; AC50 [1, 4]: 0.71 µM
Cc1cc(C)n2ccc(C(=O)NC3CCN(Cc4ccccc4)CC3)c2n1 [compound 32]	50 µM	–
Cc1cc(C)n2ccc(C(=O)Nc3ccc(CN4CCN(C)CC4)cc3)c2n1 [compound 8]	39.8 µM	–
Cc1cc(C)n2ccc(C(=O)Nc3ccc(Cc4ccccc4)cc3)c2n1 [compound 13]	0.79 µM	–
Cc1cc(C)n2ccc(C(=O)NC3CCc4ccccc43)c2n1 (stereo not shown) [compound 28]	3.98 µM	–
Cc1cc(C)n2ccc(C(=O)Nc3ccc(CCN4CCN(C)CC4)cc3)c2n1 [compound 16]	44.7 µM	–
Cc1cc(C)n2ccc(C(=O)Nc3ccc(-c4cn(CCCCC(=O)O)nn4)cc3)c2n1 [compound 57]	7.08 µM	Activator / Inhibitor (word in Ac50 cell) ([1]; Table 1): Activator
Cc1cc(C)n2ccc(C(=O)Nc3ccc(N4CCN(C)CC4)cc3)c2n1 [compound 10]	7.08 µM	–
Cc1cc(C)n2ccc(C(=O)Nc3ccc(CCN4CCOCC4)cc3)c2n1 [compound 14]	31.6 µM	–
Cc1cc(C)n2ccc(C(=O)Nc3ccc(-c4cn(CCOCCOCCC(=O)NCCN5CCOCC5)nn4)cc3)c2n1 [compound 67]	8.91 µM	–
Cc1cc(C)n2ccc(C(=O)Nc3ccc(C#CCCCCCCCCC(=O)ON4C(=O)CCC4=O)cc3)c2n1 [compound 82]	–	activator (word in Activity cell) ([1]; Table 2): activator; AC50 [1, 4]: 0.8 µM
Cc1cc(C)n2ccc(C(=O)Nc3ccc(N4CCCCC4)cc3)c2n1 [compound 18]	1.58 µM	–
Cc1cc(C)n2ccc(C(=O)Nc3ccc(-c4cn(CCCCC(=O)ON5C(=O)CCC5=O)nn4)cc3)c2n1 [compound 60]	0.63 µM	Activator / Inhibitor (word in Ac50 cell) ([1]; Table 1): Activator
Cc1cc(C)n2ccc(C(=O)Nc3ccc(-c4cn(CCOCCOCCOCCN)nn4)cc3)c2n1 [compound 66]	7.94 µM	–
Cc1cc(C)n2ccc(C(=O)Nc3ccc(-c4cn(CCCCCCCCC(=O)O)nn4)cc3)c2n1 [compound 59]	1.78 µM	Activator / Inhibitor (word in Ac50 cell) ([1]; Table 1): Activator
